Ten compounds from JP2006306850A, “置換ベンズアニリド化合物及び有害生物防除剤” (priority 2005, dated 2006) can be followed below.

Assay type in all cases: in vivo
Holding throughout (details): 144 h, read-out: mortality rate

Assay [1] deals with diamondback moth [コナガ(Plutella xylostella)]. Description: 試験例1 コナガに対する殺虫試験 (insecticidal test, 2nd instar larvae).
The test system of assay [2] is cucurbit leaf beetle [ウリハムシ(Aulacophora femoralis)]. Put plainly: 試験例4 ウリハムシに対する殺虫試験 (insecticidal test, 2nd instar larvae).
For assay [3], the system named is oriental tea tortrix [チャハマキ(Homona magnanima)]. Put plainly: 試験例3 チャハマキに対する殺虫試験 (insecticidal test, 2nd instar larvae).
Assay [4] relates to common cutworm [ハスモンヨトウ(Spodoptera litura)]. Description: 試験例2 ハスモンヨトウに対する殺虫試験 (insecticidal test, 2nd instar larvae).
Where [5] appears, read: 100 ppm, leaf dip, 2nd instar, 6 days, 25℃.

Like-named read-outs stand apart in the source and are kept apart here. A value given as a limit tells only on which side of the number the result lay.

Broadly, the mortality is the share of the test organisms that died. On to `Cc1cc(C(O)(c2ccc(OC(F)(F)F)cc2)C(F)(F)F)ccc1NC(=O)c1cccc(I)c1C(=O)NC(C)C` (centres unmarked) [1-009], for which the mortality at 100 ppm in assay [1] was 100%; in assay [3] it was not below 80%; in assay [4], not below 80%. The mortality at 500 ppm in assay [2] stood at 100%.
Consider `Cc1cc(C(O)(c2ccc(OC(F)(F)Br)cc2)C(F)(F)F)ccc1NC(=O)c1cccc(I)c1C(=O)NC(C)C` (centres unmarked) [1-010], for which the mortality at 100 ppm was 100% in assay [1] (setting [5]), not below 80% in assay [3] (setting [5]) and not below 80% in assay [4] (setting [5]). The mortality at 500 ppm in assay [2] (500 ppm, leaf dip, 2nd instar, 6 days, 25℃) was found to be 100%.
With `Cc1cc(C(O)(c2ccc(OS(C)(=O)=O)cc2)C(F)(F)F)ccc1NC(=O)c1cccc(I)c1C(=O)NC(C)C` (centres unmarked) [1-015], the mortality at 100 ppm is 100% in assay [1] and not below 80% in assay [4].
In the case of `Cc1cc(C(O)(c2ccc3c(c2)OC(F)(F)C(F)(F)O3)C(F)(F)F)ccc1NC(=O)c1cccc(I)c1C(=O)NC(C)C` (centres unmarked) [1-028], the mortality at 100 ppm is 100% in assay [1], not below 80% in assay [3] and not below 80% in assay [4]. Moreover, the mortality at 500 ppm in assay [2] is 100%.
Regarding `Cc1cc(C(C)(O)c2ccc(C(F)(F)F)cn2)ccc1NC(=O)c1cccc(I)c1C(=O)NC(C)C` (centres unmarked) [2-001], the results for the mortality at 100 ppm in assay [1] and in assay [4] were 100% and not below 80%, respectively. Further, the mortality at 500 ppm in assay [2] turned out to be 100%.
Regarding `Cc1cc(C(O)(COc2ccc(Cl)cc2)C(F)(F)F)ccc1NC(=O)c1cccc(I)c1C(=O)NC(C)C` (centres unmarked) [2-004], the figures for the mortality at 100 ppm in assay [1] and in assay [4] were 100% and not below 80%, respectively. Further, in assay [2], the mortality at 500 ppm was determined as 100%.
With `Cc1cc(C(O)(C(F)(F)F)C(F)(F)Oc2ccc(Cl)cc2)ccc1NC(=O)c1cccc(I)c1C(=O)NC(C)C` (centres unmarked) [2-008], the mortality at 100 ppm is 100% in assay [1], not below 80% in assay [3] and not below 80% in assay [4]. The mortality at 500 ppm in assay [2] is 100%.
Regarding `Cc1cc(C(O)(C=Cc2ccc(Cl)cc2)C(F)(F)F)ccc1NC(=O)c1cccc(I)c1C(=O)NC(C)C` (centres unmarked) [2-018], the mortality at 100 ppm in assay [1] is 100%; in assay [3], not below 80%; in assay [4] it was not below 80%. The mortality at 500 ppm in assay [2] is 100%.
With `COC(c1ccc(Cl)cc1)(c1ccc(NC(=O)c2cccc(I)c2C(=O)NC(C)C)c(C)c1)C(F)(F)F` (centres unmarked) [3-002], the mortality at 100 ppm was 100% in assay [1], not below 80% in assay [3] and not below 80% in assay [4].
Turning to `Cc1cc2c(cc1NC(=O)c1cccc(I)c1C(=O)NC(C)C)OC(F)(F)C2(O)C(F)(F)F` (centres unmarked) [4-002], the mortality at 100 ppm in assay [1] was 100%; in assay [3] it was not below 80%; in assay [4], not below 80%. The mortality at 500 ppm in assay [2] worked out at 100%.
